Measurements published in PMC9250534, “Synthesis and direct assay of large macrocycle diversities by combinatorial late-stage modification at picomole scale” (Nature Communications, 2022).
Numbered stars: 1 amine (or outer) side, 2 acyl side, 3 side chain; on linkers, the order of the positions; unused ones are H or OH. Bridge positions count the residues as written; N and C are the ends. Square brackets hold non-standard residues; d marks the D form. Peptide text beside a SMILES is read from it. * marks the point of attachment. ξ: configuration not given here. Pro(4S-NHCO(5-Cl-2-thienyl)) = O=C(N[C@@H]1CN[C@H](C(=O)O)C1)c1ccc(Cl)s1; ξPro(4-NHCO(5-Cl-2-thienyl)) = O=C(NC1CNC(C(=O)O)C1)c1ccc(Cl)s1; Pyrazinoyl(5-oxo-4H) = O=C(c1c[nH]c(=O)cn1)*; 1,2,3Thiadiazole5CO(4-Me) = Cc1nnsc1C(=O)*; Isoorotoyl = O=C(c1c[nH]c(=O)[nH]c1=O)*; Nicotinoyl(6-OMe) = COc1ccc(C(=O)*)cn1; 2Thenoyl(5-Cl) = O=C(c1ccc(Cl)s1)*; Phenoxyacetyl = O=C(COc1ccccc1)*; Cysteamide = C(CS[*:3])N[*:1]; X3 = O=C(Cc1c[nH]c2ccccc12)*; 2Furoyl = O=C(c1ccco1)*; Api = NC1(C(=O)O)CCNCC1; Orn = NCCC[CH](N)C(=O)O; Dap = NC[C@H](N)C(=O)O; Bz = O=C(c1ccccc1)*; Mpa = O=C(O)CCS

Biological target: T1, thrombin (Homo sapiens, UniProt P00734)
T1 construct: consists of two polypeptide chains of 36 (light chain) and 259 amino acid
Test: Thrombin inhibition screen of crude macrocycle reactions (residual thrombin activity, fluorogenic substrate Z-Gly-Gly-Arg-AMC)
Assay type: biochemical
Conditions: 10 µM macrocycle concentration; for percent residual thrombin activity: crude reactions, Library 1a-l, scaffold AA1-AA2-AA3 combined with 1-16 or '-'; for % thrombin activity, Original screen / % thrombin activity, Repeat screen: macrocycles containing acid 14, crude reaction; for % thrombin activity, Repeat screen: replicate reaction and screen
Method in brief: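 Residual activity was measured as the AMC release rate after adding 50 μM Z-Gly-Gly-Arg-AMC. This followed a 10-min room-temperature preincubation of 2 nM thrombin with 10 μM single macrocycles in pH 7.4 Tris buffer (0.6% DMSO). Percent inhibition was taken against the mean slope of DMSO controls.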

percent residual thrombin activity [%] | % thrombin activity, Original screen [%] | % thrombin activity, Repeat screen [%] | SMILES | further results
105.594 |  |  | CC(C)[C@@H]1NC(=O)CCSSCCNC(=O)[C@@H]2CCCN2C(=O)[C@H](CCCCNC(=O)c2ccc(Cl)s2)NC1=O [V-D1-B1/14] ([Mpa]VK(2Thenoyl(5-Cl))P-Cysteamide; disulfide 1-C) | 
88.7647 |  |  | O=C(COc1ccccc1)NCCCC[C@@H]1NC(=O)C2(CC2)CNC(=O)[C@H](Cc2c[nH]c3ccccc23)NC(=O)CCSSCCNC1=O [W-B6-D1/13] | 
81.7178 |  |  | O=C1CCSSCCNC(=O)[C@H](CCCCNC(=O)c2ccc(Cl)s2)NC(=O)C2(CC2)CNC(=O)[C@H](Cc2c[nH]c3ccccc23)N1 [W-B6-D1/14] | 
96.359 |  |  | O=C(COc1ccccc1)NCCCC[C@@H]1NC(=O)[C@H](Cc2c[nH]c3ccccc23)NC(=O)CCSSCCNC(=O)[C@@H]2CCCN2C1=O [W-D1-B1/13] ([Mpa]WK(Phenoxyacetyl)P-Cysteamide; disulfide 1-C) | 
 | 103.7 | 108.0 | O=C(NCCCC[C@@H]1NC(=O)[C@@H]2CCCN2C(=O)CCSSCCNC(=O)[C@@H](Cc2ccc(O)cc2)NC1=O)c1ccc(Cl)s1 [X B1 D1 y] ([Mpa]PK(2Thenoyl(5-Cl))[dY]-Cysteamide; disulfide 1-C) | 
 | 86.2 | 88.2 | O=C(NC[C@@H]1NC(=O)[C@@H]2CCCN2C(=O)CCSSCCNC(=O)[C@@H](Cc2ccccc2)NC1=O)c1ccc(Cl)s1 [X B1 D3 f] ([Mpa]P[Dap](2Thenoyl(5-Cl))[dF]-Cysteamide; disulfide 1-C) | 
 | 91.7 | 93.5 | NC(=O)CC[C@@H]1NC(=O)C2(CCN(C(=O)c3ccc(Cl)s3)CC2)NC(=O)[C@@H]2CCCN2C(=O)CCSSCCNC1=O [X B1 D6 Q] ([Mpa]P[Api](2Thenoyl(5-Cl))Q-Cysteamide; disulfide 1-C) | 
 | 94.2 | 99.9 | CC(C)CC1NC(=O)C2CCCN2C(=O)CCSSCCNC(=O)C2CC(NC(=O)c3ccc(Cl)s3)CN2C1=O (stereo not drawn) [X B1 L D5] ([Mpa]PL[ξPro(4-NHCO(5-Cl-2-thienyl))]-Cysteamide; disulfide 1-C; configuration not given here) | 
 | 94.1 | 97.2 | O=C1NC2(CCN(C(=O)c3ccc(Cl)s3)CC2)C(=O)NCCSSCCC(=O)N2CCCC2C(=O)NC1Cc1c[nH]c2ccccc12 (stereo not drawn) [X B1 w D6] ([Mpa]PW[Api](2Thenoyl(5-Cl))-Cysteamide; disulfide 1-C; configuration not given here) | 
 | 95.8 | 101.8 | O=C1CCSSCCNC(=O)C(Cc2c[nH]c3ccccc23)NC(=O)C2CC(NC(=O)c3ccc(Cl)s3)CN2C(=O)CCN1 (stereo not drawn) [X B2 D5 w] | 

More lines, now with the values behind:

SMILES | percent residual thrombin activity [%] | % thrombin activity, Original screen [%] | % thrombin activity, Repeat screen [%] | further results
CC(C)[C@@H]1NC(=O)CCSSCCNC(=O)[C@@H]2CCCN2C(=O)[C@H](CCCCNC(=O)c2c[nH]c(=O)cn2)NC1=O [V-D1-B1/9] ([Mpa]VK(Pyrazinoyl(5-oxo-4H))P-Cysteamide; disulfide 1-C) | 107.119 |  |  | 
COc1ccc(C(=O)NCCCC[C@@H]2NC(=O)[C@H](C(C)C)NC(=O)CCSSCCNC(=O)[C@@H]3CCCN3C2=O)cn1 [V-D1-B1/10] ([Mpa]VK(Nicotinoyl(6-OMe))P-Cysteamide; disulfide 1-C) | 107.385 |  |  | 
CC(C)[C@@H]1NC(=O)CCSSCCNC(=O)[C@@H]2CCCN2C(=O)[C@H](CCCCNC(=O)Cc2c[nH]c3ccccc23)NC1=O [V-D1-B1/12] ([Mpa]VK(X3)P-Cysteamide; disulfide 1-C) | 105.267 |  |  | 
CC(C)[C@@H]1NC(=O)CCSSCCNC(=O)[C@@H]2CCCN2C(=O)[C@H](CCCCNC(=O)COc2ccccc2)NC1=O [V-D1-B1/13] ([Mpa]VK(Phenoxyacetyl)P-Cysteamide; disulfide 1-C) | 111.167 |  |  | 
Cc1nnsc1C(=O)NCCCC[C@@H]1NC(=O)[C@H](C(C)C)NC(=O)CCSSCCNC(=O)[C@@H]2CCCN2C1=O [V-D1-B1/15] ([Mpa]VK(1,2,3Thiadiazole5CO(4-Me))P-Cysteamide; disulfide 1-C) | 114.617 |  |  | 
CC(C)[C@@H]1NC(=O)CCSSCCNC(=O)[C@@H]2CCCN2C(=O)[C@H](CCCCNC(=O)c2ccco2)NC1=O [V-D1-B1/16] ([Mpa]VK(2Furoyl)P-Cysteamide; disulfide 1-C) | 110.34 |  |  | 
O=C1CCSSCCNC(=O)[C@H](CCCCNC(=O)c2ccccc2)NC(=O)C2(CC2)CNC(=O)[C@H](Cc2c[nH]c3ccccc23)N1 [W-B6-D1/1] | 92.2757 |  |  | 
NCCCC[C@@H]1NC(=O)C2(CC2)CNC(=O)[C@H](Cc2c[nH]c3ccccc23)NC(=O)CCSSCCNC1=O [W-B6-D1/-] | 87.3276 |  |  | 
O=C1CCSSCCNC(=O)[C@@H]2CCCN2C(=O)[C@H](CCCCNC(=O)c2ccccc2)NC(=O)[C@H](Cc2c[nH]c3ccccc23)N1 [W-D1-B1/1] ([Mpa]WK(Bz)P-Cysteamide; disulfide 1-C) | 101.199 |  |  | 
O=C1CCSSCCNC(=O)[C@@H]2CCCN2C(=O)[C@H](CCCCNC(=O)c2c[nH]c(=O)[nH]c2=O)NC(=O)[C@H](Cc2c[nH]c3ccccc23)N1 [W-D1-B1/11] ([Mpa]WK(Isoorotoyl)P-Cysteamide; disulfide 1-C) | 99.1805 |  |  | 
CC(C)[C@H]1NC(=O)[C@H](CCCCNC(=O)c2ccc(Cl)s2)NC(=O)[C@@H]2CCCN2C(=O)CCSSCCNC1=O [X B1 D1 v] ([Mpa]PK(2Thenoyl(5-Cl))[dV]-Cysteamide; disulfide 1-C) |  | 108.1 | 109.9 | 
NC(=O)CC[C@@H]1NC(=O)[C@@H]2C[C@H](NC(=O)c3ccc(Cl)s3)CN2C(=O)[C@@H]2CCCN2C(=O)CCSSCCNC1=O [X B1 D5 Q] ([Mpa]P[Pro(4S-NHCO(5-Cl-2-thienyl))]Q-Cysteamide; disulfide 1-C) |  | 96.1 | 98.4 | 
O=C1NCCSSCCC(=O)N2CCC[C@H]2C(=O)NC2(CCN(C(=O)c3ccc(Cl)s3)CC2)C(=O)N[C@H]1Cc1c[nH]cn1 [X B1 D6 H] ([Mpa]P[Api](2Thenoyl(5-Cl))H-Cysteamide; disulfide 1-C) |  | 90.0 | 94.0 | 
NC(=O)CCC1NC(=O)C2CCCN2C(=O)CCSSCCNC(=O)C(CCCNC(=O)c2ccc(Cl)s2)NC1=O (stereo not drawn) [X B1 Q D2] ([Mpa]PQ[Orn](2Thenoyl(5-Cl))-Cysteamide; disulfide 1-C; configuration not given here) |  | 92.6 | 89.5 | 
O=C1CCSSCCNC(=O)[C@H](CO)NC(=O)[C@H](CNC(=O)c2ccc(Cl)s2)NC(=O)CCN1 [X B2 D3 S] |  | 83.8 | 76.6 | % thrombin activity, Original screen (listed as X B2 D3 s): 102.4%; % thrombin activity, Repeat screen (listed as X B2 D3 s): 99.4%
O=C1CCSSCCNC(=O)[C@@H](Cc2c[nH]c3ccccc23)NC(=O)[C@@H](CNC(=O)c2ccc(Cl)s2)NC(=O)CCN1 [X B2 D4 w] |  | 88.8 | 91.0 | 
O=C1CCSSCCNC(=O)[C@H](CNC(=O)c2ccc(Cl)s2)NC(=O)[C@H](Cc2ccccc2)NC(=O)CCN1 [X B2 F D3] |  | 34.0 | 33.5 | 
